According to ChEMBL document CHEMBL1126923, “Novel inhibitors of prolyl 4-hydroxylase. 5. The intriguing structure-activity relationships seen with 2,2'-bipyridine and its 5,5'-dicarboxylic acid derivatives” (J Med Chem, 1993):

Legend:
[1] = system: Prolyl 4-hydroxylase (Gallus gallus); experiment: Inhibition of prolyl 4-hydroxylase by chromatographic determination of [14C]-succinic acid on ion-exchange minicolumna at 50 ug/mL
[2] = system: Prolyl 4-hydroxylase (Gallus gallus); experiment: Inhibition of prolyl 4-hydroxylase by chromatographic determination of [14C]-succinic acid on ion-exchange minicolumna at 100 ug/mL

Row | SMILES | inhibition [1] [%] | inhibition [2] [%]
1 | CCOc1ccc(NC(=O)c2ccc(-c3ccccn3)nc2)cc1 | 13 | 
2 | CCOc1ccc(NC(=O)c2ccc(-c3ccc(C(=O)Nc4ccc(OCC)cc4)cn3)nc2)cc1 |  | 13
